In patent US20100041089A1, “IMPROVED METHOD FOR DETECTING CHEMICAL […]” (priority 2006, published 2010):

Tested on: yeast genes (expressed mRNA)
Test: DNA chip measurement of expressed mRNA of yeast genes after culture with a toxic chemical substance
Format: cell-based, Saccharomyces cerevisiae S288C
Protocol: Yeast (Saccharomyces cerevisiae S288C (a SUC2mal mel gap2 CUP1)) were cultured at 25° C. on YPD medium (yeast extract 1%, polypeptone 2%, glucose 2%). One of toxic chemical substances was added to the cell at logarithmic growth phase, and the cell was further cultured for two hours. Cell was cultured without any chemical substance in the same condition, and was used as a control. Concentrations of the chemical substances were defined to inhibit the growth of the yeast but not lead to death.
After the completion of cultivation, the culture was centrifuged to collect the cells. To the cells, sodium acetate buffer (50 mM sodium acetate, 10 mM EDTA, 1% SDS) was added, and the mixture was shaken at 65° C. for five minutes, followed by returning to room temperature, and obtaining the supernatant, which procedure was repeated two times. To the supernatant, ½ amount of a solution of phenol/chloroform (1:1) was added, and the mixture was centrifuged to give a supernatant, an equal amount of chloroform was added, and the mixture was centrifuged to give a supernatant. To the supernatant, an equal amount of isopropanol containing 0.3 M sodium acetate was added, and the mixture was allowed to stand at room temperature for 30 minutes, after which the mixture was centrifuged to give sediment of the whole RNAs. Seventy % ethanol was added to the sediment, and the mixture was again centrifuged to give sediment, which was then dried and dissolved in water. mRNA was isolated from the whole RNAs as followings. In view of the fact that a poly A chain is attached to the 3′ terminus of mRNA, a polynucleotide having a poly T structure which was immobilized on the surface of latex beads was used to trap the mRNA, and then the mRNA was washed and eluted with spine column (Oligotex-dT30<Super>mRNA Purification Kit, Takara). Reverse transcription of the mRNA was conducted with a reverse transcriptase (Super Script II Reverse Transcriptase; catalogue No. 18064-014, GibcoBRL) using fluorescence-labeled nucleotides to give cDNAs that were introduced with Cy3-dUTP or Cy5-dUTP during the reverse transcription.
The labeled cDNAs were dissolved in TE buffer (10 mM Tris-HCl/1 mM EDTA, pH 8.0), and the solution was dropped on the DNA chip containing the whole genes of yeast (DNA Chip Research Inc. Japan) so that the cDNAs were hybridized on the DNA chip at 65° C. for over 12 hours. The fluoresces intensity of the DNA chip was read with a scanner, and the ratio relative to the fluorescence intensity resulting from the absence of chemical substance was estimated as the following, which is shown in Tables 1 to 9.
In the Tables, “Intensity” indicated in the rightmost column is a value of the level of expressed mRNA of each gene in control cells as divided by the average level of the expressions of the whole genes. A gene of which mRNA level is lower in control, and is higher in cases of addition of chemical substance, is especially useful in the detection of toxic substances.
Here, when a ratio of an amount of mRNA expressed in the presence of the chemical substance to an amount of mRNA expressed in the absence of the chemical substance is two or more, then it is considered significant.

Measured: The level of expressed mRNA in the presence of chemical substance/The level of expressed mRNA in the absence of chemical substance

O=[N+]([O-])c1cc[n+]([O-])c2ccccc12 [(5), 4-Nitroquinoline-N-oxide]
1.2: yeast gene YMR102C, cultured two hours with substance | yeast gene YNL044W, cultured two hours with substance | yeast gene YOL036W, cultured two hours with substance | yeast gene YPL222W, cultured two hours with substance
1.7: yeast gene YNL234W, cultured two hours with substance | yeast gene YNL281W, cultured two hours with substance | yeast gene YNR068C, cultured two hours with substance | yeast gene YOL117W, cultured two hours with substance
2.8: yeast gene YKL139W
0.9: yeast gene YMR095C, cultured two hours with substance | yeast gene YNL092W, cultured two hours with substance | yeast gene YOL071W, cultured two hours with substance | yeast gene YOL162W, cultured two hours with substance
1.8: yeast gene YOR215C, cultured two hours with substance
2.2: yeast gene YML107C, cultured two hours with the substance
1.3: yeast gene YLR054C, cultured two hours with substance | yeast gene YLR324W, cultured two hours with substance | yeast gene YLR387C, cultured two hours with substance | yeast gene YLR460C, cultured two hours with substance | yeast gene YNL074C, cultured two hours with substance | yeast gene YNL305C, cultured two hours with substance | yeast gene YPR151C, cultured two hours with substance
1.5: yeast gene YMR191W, cultured two hours with substance | yeast gene YOL082W, cultured two hours with substance | yeast gene YOL131W, cultured two hours with substance | yeast gene YPL196W, cultured two hours with substance
1.9: yeast gene YKL195W, cultured two hours with substance | yeast gene YMR009W, cultured two hours with substance
2.1: yeast gene YNL217W, cultured two hours with the substance
1.4: yeast gene YMR295C, cultured two hours with substance | yeast gene YOL032W, cultured two hours with substance | yeast gene YOL047C, cultured two hours with substance | yeast gene YOL083W, cultured two hours with substance | yeast gene YOR019W, cultured two hours with substance
1.1: yeast gene YLR152C, cultured two hours with substance | yeast gene YMR067C, cultured two hours with substance | yeast gene YMR107W, cultured two hours with substance | yeast gene YMR316W, cultured two hours with substance | yeast gene YPR023C, cultured two hours with substance
0.6: yeast gene YOR197W, cultured two hours with substance | yeast gene YPL087W, cultured two hours with substance
1.0: yeast gene YKL151C, cultured two hours with substance | yeast gene YKL153W, cultured two hours with substance | yeast gene YLR194C, cultured two hours with substance | yeast gene YMR180C, cultured two hours with substance | yeast gene YOL150C, cultured two hours with substance
0.7: yeast gene YMR090W, cultured two hours with substance | yeast gene YMR097C, cultured two hours with substance | yeast gene YPL206C, cultured two hours with substance
2.5: yeast gene YLR388W
1.6: yeast gene YKR091W, cultured two hours with substance | yeast gene YNL156C, cultured two hours with substance
0.8: yeast gene YKL086W, cultured two hours with substance | yeast gene YLR149C, cultured two hours with substance | yeast gene YLR350W, cultured two hours with substance | yeast gene YML117W, cultured two hours with substance | yeast gene YMR184W, cultured two hours with substance | yeast gene YNL115C, cultured two hours with substance
